This note sets out measurements from patent US8691757B2 (Bristol-Myers Squibb Company, priority 2011, dated 2014).

Each structure is given as a SMILES string.

Experiment [1] has as its system HCV genotype 1b (Con1) replicon in HUH-7 cells. Nature of the experiment: HCV replicon luciferase reporter assay, genotype 1b. In kind it is cell-based. The settings on record: Hepatitis C virus, 72 h, HCV genotype 1b replicon, 3 days incubation, Renilla luciferase. The text has this:
An HCV replicon whole cell system was established as described by Lohmann V, Korner F, Koch J, Herian U, Theilmann L, Bartenschlager R., Science 285(5424):110-3 (1999) and modified to introduce a luciferase reporter, as first described by Krieger et al (Krieger N, Lohmann V, and Bartenschlager R, J. Virol. 75(10):4614-4624 (2001)). CDNA encoding a humanized form of the Renilla luciferase gene and a linker sequence fused directly to the 3′-end of the luciferase gene were introduced into the replicon construct using an Asc1 restriction site located in core, directly upstream of the neomycin marker gene. The adaptive mutation at position 1179 (serine to isoleucine) was also introduced (Blight K J, Kolykhalov, A A, Rice, C M, Science 290(5498):1972-1974). A stable cell line constitutively expressing this HCV replicon construct was generated by first linearizing plasmid DNAs with ScaI. RNA transcripts were synthesized in vitro using the T7 MegaScript transcription kit (Ambion, Austin, Tex.) according to manufacturer's directions. In vitro transcripts of the cDNA were transfected into the human hepatoma cell line, HUH-7. […] Resulting cell lines were characterized for positive and negative strand RNA production and protein production over time. […]
(§1) HCV replicon luciferase assays were developed to monitor the inhibitory effects of compounds described in the disclosure on HCV genotypes 1a and 1b viral replication. HUH-7 cells, constitutively expressing the HCV replicon, were grown in Dulbecco's Modified Eagle Media (DMEM) (Gibco-BRL) containing 10% Fetal calf serum (FCS) (Sigma) and 1 mg/mL G418 (Gibco-BRL). Compounds were serially diluted 3 folds in DMSO for a twenty-point titration and subsequently transferred to sterile 384-well tissue-culture treated plates (Corning cat #3571). The plates were then seeded with 50 μL of cells at a density of 3.0×10^3 cells/well in DMEM containing 4% FCS (final DMSO concentration at 0.5%). After 3 days incubation at 37° C., cells were analyzed for Renilla Luciferase activity using the EnduRen as substrate (Promega cat #E6485). The EnduRen substrate was diluted in DMEM and then added to the plates to a final concentration of 7.5 μM. The plates were incubated for 2 hrs at 37° C. and then read immediately for 30 seconds with Viewlux Imager (PerkinElmer) using a luminescence program. To assess cytotoxicity of compounds, CC50 values were generated by multiplexing the EnduRen-containing plates with Cell Titer-Blue (Promega, cat #G8082). Cell-Titer Blue (3 μL) was added to each well and incubated for 8 hrs at 37° C. The fluorescence signal from each well was read, with an excitation wavelength at 525/10 nm and an emission wavelength of 598/10 nm, using the Viewlux Imager.
(§2) The EC50 values for compounds were calculated by using a four-parameter logistic equation: y=A+((B−A)/(1+((C/x)^D))), where A and B denotes minimal and maximal % inhibition, respectively, C is the EC50, D is the hill slope and x represents compound concentration.
In general terms: Replicon systems follow genome replication, usually without infectious particles.

The test system of experiment [2] is HCV genotype 1a (H77 strain) replicon in HUH-7 cells. Kind of experiment: HCV replicon luciferase reporter assay, genotype 1a. The settings on record: Hepatitis C virus, 72 h, HCV genotype 1a replicon, 3 days incubation, Renilla luciferase. In kind it is cell-based.
Description: An HCV replicon whole cell system was established as described by Lohmann V, Korner F, Koch J, Herian U, Theilmann L, Bartenschlager R., Science 285(5424):110-3 (1999) and modified to introduce a luciferase reporter, as first described by Krieger et al (Krieger N, Lohmann V, and Bartenschlager R, J. Virol. 75(10):4614-4624 (2001)). CDNA encoding a humanized form of the Renilla luciferase gene and a linker sequence fused directly to the 3′-end of the luciferase gene were introduced into the replicon construct using an Asc1 restriction site located in core, directly upstream of the neomycin marker gene. The adaptive mutation at position 1179 (serine to isoleucine) was also introduced (Blight K J, Kolykhalov, A A, Rice, C M, Science 290(5498):1972-1974). A stable cell line constitutively expressing this HCV replicon construct was generated by first linearizing plasmid DNAs with ScaI. RNA transcripts were synthesized in vitro using the T7 MegaScript transcription kit (Ambion, Austin, Tex.) according to manufacturer's directions. In vitro transcripts of the cDNA were transfected into the human hepatoma cell line, HUH-7. […] Resulting cell lines were characterized for positive and negative strand RNA production and protein production over time.
A stable HCV replicon luciferase reporter cell line representing the genotype 1a H77 strain (Yanagi M, Purcell R H, Emerson S U, et al. Transcripts from a single full-length cDNA clone of hepatitis C virus are infectious when directly transfected into the liver of a chimpanzee. Proc Natl Acad Sci USA 1997; 94(16):8738-8743) was generated as described previously for the genotype 1b (Con1) replicon luciferase cell line. The replicon construct was modified by introducing mutations were introduced into the genes encoding the NS3 helicase domain (proline replaced by leucine at position 1496) and NS5A (serine to isoleucine at position 2204) to improve replication in cell culture.
as §1, §2

Regarding `COc1ccc2nc(O[C@@H]3C[C@H]4C(=O)N[C@]5(C(=O)NS(=O)(=O)C6CC6)C[C@H]5/C=C\[C@H](C)CCC[C@@H](C)[C@H](NC(=O)OC(C)(C)C)C(=O)N4C3)cnc2c1` [Compound 26, tert-butyl (2R,6S,7R,11R,13aS,14aR,16aS,Z)-14a-(cyclopropylsulfonylcarbamoyl)-2-(6-methoxyquinoxalin-2-yloxy)-7,11-dimethyl-5,16-dioxo-1,2,3,5,6,7,8,9,10,11,13a,14,14a,15,16,16a-hexadecahydrocyclopropa[e]pyrrolo[1,2-a][1,4]diazacyclopentadecin-6-ylcarbamate], the EC50 (in general, the concentration at which the effect is half-maximal) in experiment [1] (numeric values) turned out to be 86.5 nM; in experiment [2] (numeric values), 215 nM.
Regarding `COc1ccc2nc(O[C@@H]3C[C@H]4C(=O)N[C@]5(C(=O)NS(=O)(=O)C6CC6)C[C@H]5/C=C\[C@@H](C)CCC[C@@H](C)[C@H](NC(=O)OC(C)(C)C)C(=O)N4C3)cnc2c1` [Compound 27, tert-butyl (2R,6S,7R,11S,13aS,14aR,16aS,Z)-14a-(cyclopropylsulfonylcarbamoyl)-2-(6-methoxyquinoxalin-2-yloxy)-7,11-dimethyl-5,16-dioxo-1,2,3,5,6,7,8,9,10,11,13a,14,14a,15,16,16a-hexadecahydrocyclopropa[e]pyrrolo[1,2-a][1,4]diazacyclopentadecin-6-ylcarbamate], the concentration for a half-maximal effect (EC50) in experiment [1] (range classes) and in experiment [2] (range classes) was 5.01 to 68 nM each time.
As to `COc1ccc2ncc(O[C@@H]3C[C@H]4C(=O)N[C@]5(C(=O)NS(=O)(=O)C6CC6)C[C@H]5/C=C\[C@H](C)CCC[C@@H](C)[C@H](NC(=O)OC(C)(C)C)C(=O)N4C3)nc2c1` [Compound 28, tert-butyl (2R,6S,7R,11R,13aS,14aR,16aS,Z)-14a-(cyclopropylsulfonylcarbamoyl)-2-(7-methoxyquinoxalin-2-yloxy)-7,11-dimethyl-5,16-dioxo-1,2,3,5,6,7,8,9,10,11,13a,14,14a,15,16,16a-hexadecahydrocyclopropa[e]pyrrolo[1,2-a][1,4]diazacyclopentadecin-6-ylcarbamate], the EC50 in experiment [1] (range classes) was in the range of 1.01 to 2 nM; in experiment [2] (range classes), 5.01 to 68 nM.
The matching figures for `COc1ccc2ncc(O[C@@H]3C[C@H]4C(=O)N[C@]5(C(=O)NS(=O)(=O)C6CC6)C[C@H]5/C=C\[C@@H](C)CCC[C@@H](C)[C@H](NC(=O)OC(C)(C)C)C(=O)N4C3)nc2c1` [Compound 29, tert-butyl (2R,6S,7R,11S,13aS,14aR,16aS,Z)-14a-(cyclopropylsulfonylcarbamoyl)-2-(7-methoxyquinoxalin-2-yloxy)-7,11-dimethyl-5,16-dioxo-1,2,3,5,6,7,8,9,10,11,13a,14,14a,15,16,16a-hexadecahydrocyclopropa[e]pyrrolo[1,2-a][1,4]diazacyclopentadecin-6-ylcarbamate]: 5.01 to 68 nM and 5.01 to 68 nM.
The matching figures for `COc1ccc2ncc(O[C@@H]3C[C@H]4C(=O)N[C@]5(C(=O)NS(=O)(=O)C6CC6)C[C@H]5/C=C\[C@H](C)CCC[C@@H](C)[C@H](NC(=O)OC(C)(C)C(F)(F)F)C(=O)N4C3)nc2c1` [Compound 30, 1,1,1-trifluoro-2-methylpropan-2-yl (2R,6S,7R,11R,13aS,14aR,16aS,Z)-14a-(cyclopropylsulfonylcarbamoyl)-2-(7-methoxyquinoxalin-2-yloxy)-7,11-dimethyl-5,16-dioxo-1,2,3,5,6,7,8,9,10,11,13a,14,14a,15,16,16a-hexadecahydrocyclopropa[e]pyrrolo[1,2-a][1,4]diazacyclopentadecin-6-ylcarbamate]: 0.2 to 1 nM and 2.01 to 5 nM.
The matching figures for `COc1ccc2ncc(O[C@@H]3C[C@H]4C(=O)N[C@]5(C(=O)NS(=O)(=O)C6CC6)C[C@H]5/C=C\[C@@H](C)CCC[C@@H](C)[C@H](NC(=O)OC(C)(C)C(F)(F)F)C(=O)N4C3)nc2c1` [Compound 31, 1,1,1-trifluoro-2-methylpropan-2-yl (2R,6S,7R,11S,13aS,14aR,16aS,Z)-14a-(cyclopropylsulfonylcarbamoyl)-2-(7-methoxyquinoxalin-2-yloxy)-7,11-dimethyl-5,16-dioxo-1,2,3,5,6,7,8,9,10,11,13a,14,14a,15,16,16a-hexadecahydrocyclopropa[e]pyrrolo[1,2-a][1,4]diazacyclopentadecin-6-ylcarbamate]: 5.01 to 68 nM and 5.01 to 68 nM.
As for `COc1ccc2nc(O[C@@H]3C[C@H]4C(=O)N[C@]5(C(=O)NS(=O)(=O)C6CC6)C[C@H]5/C=C\[C@H](C)CCC[C@@H](C)[C@H](NC(=O)OC(C)(C)C(F)(F)F)C(=O)N4C3)cnc2c1` [Compound 32, 1,1,1-trifluoro-2-methylpropan-2-yl (2R,6S,7R,11R,13aS,14aR,16aS,Z)-14a-(cyclopropylsulfonylcarbamoyl)-2-(6-methoxyquinoxalin-2-yloxy)-7,11-dimethyl-5,16-dioxo-1,2,3,5,6,7,8,9,10,11,13a,14,14a,15,16,16a-hexadecahydrocyclopropa[e]pyrrolo[1,2-a][1,4]diazacyclopentadecin-6-ylcarbamate], the EC50 in experiment [1] (range classes) and in experiment [2] (range classes) was 5.01 to 68 nM in each case.
Regarding `COc1cc2c(OC)cnc(O[C@@H]3C[C@H]4C(=O)N[C@]5(C(=O)NS(=O)(=O)C6CC6)C[C@H]5/C=C\[C@H](C)CCC[C@@H](C)[C@H](NC(=O)OC(C)(C)C(F)(F)F)C(=O)N4C3)c2cc1F` [Compound 33, 1,1,1-trifluoro-2-methylpropan-2-yl (2R,6S,7R,11R,13aS,14aR,16aS,Z)-14a-(cyclopropylsulfonylcarbamoyl)-2-(7-fluoro-4,6-dimethoxyisoquinolin-1-yloxy)-7,11-dimethyl-5,16-dioxo-1,2,3,5,6,7,8,9,10,11,13a,14,14a,15,16,16a-hexadecahydrocyclopropa[e]pyrrolo[1,2-a][1,4]diazacyclopentadecin-6-ylcarbamate], the figures for the concentration giving a half-maximal response (EC50) in experiment [1] (range classes) and in experiment [2] (range classes) were 1.01 to 2 nM and 2.01 to 5 nM, respectively.
The matching figures for `C[C@@H]1CCC[C@@H](C)/C=C\[C@@H]2C[C@@]2(C(=O)NS(=O)(=O)C2CC2)NC(=O)[C@@H]2C[C@@H](Oc3nccc4ccccc34)CN2C(=O)[C@H]1NC(=O)OC(C)(C)C(F)(F)F` [Compound 34, 1,1,1-trifluoro-2-methylpropan-2-yl (2R,6S,7R,11R,13aS,14aR,16aS,Z)-14a-(cyclopropylsulfonylcarbamoyl)-2-(isoquinolin-1-yloxy)-7,11-dimethyl-5,16-dioxo-1,2,3,5,6,7,8,9,10,11,13a,14,14a,15,16,16a-hexadecahydrocyclopropa[e]pyrrolo[1,2-a][1,4]diazacyclopentadecin-6-ylcarbamate]: 0.2 to 1 nM and 2.01 to 5 nM.
